Assay [1] concerns HME-RhoC cells. In words: Apoptosis / cell population of cells treated with thiopurines. The class given is cell-based, human. Conditions: for cells that underwent apoptosis within a day: thiopurine 1 μM.
Description: RhoC-overexpressed mammary epithelium (HME-RhoC) cells were used to examine the effect of 6-TG and/or a redox agent on RhoC.
For assay [2], the system named is HME-RhoC cells. In words: MTT cell viability and caspase-3/8 assays. The class given is cell-based, human. From the text:
FIG. 25. […] (B) Caspase-3/8 assay: the apoptotic activity of sample cells treated with the apoptotic inducer was set to be 100%, and other results were then expressed as normalized values against the mean value associated with the treatment with the apoptotic inducer. For both (A) and (B), all values represent the mean values and standard error values from triplicate measurements.

The target of assay [3] is T1, RhoA (Rattus norvegicus, UniProt P61589).
T1 construct: endogenous in cells; host or cells: A7r5 cells (rat aortic vascular smooth muscle)
Briefly: RhoA expression (Western) and RhoA G-LISA activity in A7r5 cells. Type of assay: cell-based. The protocol:
(§1) FIG. 20. Determination of RhoA activity and MLC phosphorylation. […] Cell lysates in a buffer containing 1% NP-40, 10 mM EDTA, and 20 mM TrisHCl (pH 7.4) were centrifuged (50,000×g, 20 min) to remove solid matter. (A) The soluble cell extract was then used to perform Western blot analyses for RhoA and the MLC. This cell extract also was used for the co-IP-based ESI-MS analysis (FIG. 6). (B) A RhoA activity assay was colorimetrically determined using cell extract; the assay was performed with the RhoA G-LISA Activation Assay Kit (Cat. No. BK124) (Denver, Colo.). To examine the level of phosphorylation of the MLC, cells were cultured with ˜5 μCi of ^32P in 1 mL of phosphate-free DMEM. The collected cell extract was nutated with resin coupled with a macrophage myosin II antibody at 4° C. for 5 h. Resin was collected by centrifugation, and proteins bound to the resin were washed and eluted with a buffer (80° C.) containing […], 5 mM DTT, and 10 mM TrisHCl (pH 6.8). The immunoprecipitates were then analyzed by SDS-PAGE and autoradiographed. The values of RhoA activity and the MLC phosphorylation determined from untreated cells were set at 100%. […] The data represented in the figure represent the mean values of triplicate measurements, and the vertical error bar indicates standard errors.

The next assay relates to MLC. In words: MLC phosphorylation in A7r5 cells. Type of assay: cell-based, rat. The procedure:
as §1

For another assay, the system named is ERM. Briefly: ERM phosphorylation in activated T cells. The class given is cell-based. The procedure: FIG. 26. Determination of Rac1 activity and ERM phosphorylation. […] (A) The soluble cell extract was then used to perform Western blot analyses for Rac1 and the ERM. This cell extract also was used for the co-IP-based ESI-MS analysis (FIG. 8). (B) A Rac1 activity assay was colorimetrically determined using cell extract; the assay was performed with the Rac1 G-LISA Activation Assay Kit (Cat. No. BK125) (Denver, Colo.). To examine the level of phosphorylation of the ERM, cells were cultured in complete RPMI 1640 medium with ˜50 μCi of ^32P/mL before initiating stimulation of T cells. The collected cell extract was nutated with resin coupled with a human ERM (231C2a) antibody (Santa Cruz Biotechnology, CA) at 4° C. for 5 h. […] The immunoprecipitates were then analyzed by SDS-PAGE and autoradiographed. […] The data represented in the figure represent the mean values of triplicate measurements, and the vertical error bar indicates standard errors.

Assay [4] deals with T1, RhoA. Briefly: Co-IP ESI-MS of thioguanine nucleotide disulfide adduct in A7r5 cells. The class given is cell-based. The settings on record: for thioguanine nucleotide-RhoA disulfide adduct (Cys20): FIGS. 21, 22. The procedure: FIG. 21. Detection of 6-TGNP adduct from A7r5 and T cells. Experimental procedures using A7r5 (A and B) and T (C and D) cells, respectively, were identical to those of the experiments described in FIG. 19 and previous studies (Tiede et al. J. Clin. Invest. 111, 1133-1145 (2003); and Poppe et al. J. Immunol. 176, 640-651 (2006)). The cell extract was incubated with a monoclonal RhoA antibody (A and B) or a Rac1 antibody (C and D) coupled with resin. Resin was collected by centrifugation (5,000×g, 10 min), which was suspended in 50% methanol:0.1% formic acid. The protein portion was separated by brief centrifugation (3,000×g for 5 min), resuspended in a buffer containing 10 mM EDTA and 5 mM phosphate (pH 7.5), digested with trypsin for 10 h, and analyzed with MS. The MS peak at 1476.6 Da represents peptide-6-TGDP adduct; TC^20LLIVFSK-6-TGDP.
FIG. 22. Detection of 8-TGNP adduct from A7r5 cells. […] The indicated MS peak at 1476.6 Da represents peptide-8-TGDP adduct; TC^20LLIVFSK-8-TGDP (SEQ ID NO:4). The molecular weight of the peptide-8-TGDP adduct is exactly the same as that of the peptide-6-TGDP adduct. A and B, respectively, represent any of samples taken from a cell culture with and without treatment with 8-TG.

[5] abbreviates: 6-TG plus DETA/NO 10 μM, FIG. 20B.

This is an account of results in US8729047B2, “Compositions for inhibiting redox-sensitive GTPases” (Board of Regents, The University of Texas System, priority 2010, dated 2014).

T1 sequence (P61589 whole entry): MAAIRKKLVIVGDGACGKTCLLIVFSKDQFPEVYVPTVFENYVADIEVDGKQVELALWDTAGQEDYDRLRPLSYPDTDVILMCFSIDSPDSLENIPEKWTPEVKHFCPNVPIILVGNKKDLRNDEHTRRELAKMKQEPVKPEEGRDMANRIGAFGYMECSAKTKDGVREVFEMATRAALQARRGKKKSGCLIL

`Nc1nc2[nH]c(S)nc2c(=O)[nH]1` [8-TG, 2-amino-8-mercapto-1H-purin-6(9H)-one]: the “delayed minor apoptosis over the course of a week of treatment” value in the assay with HME-RhoC cells [1] (8-TG 1 μM) is approximately 5%. Also, the “cells that underwent apoptosis within a day” value in the assay on HME-RhoC cells [1] is given as “less than 5%”. Moreover, the “viability of cells treated with 8-TG-redox agent” value in the assay on HME-RhoC cells [2] (8-TG for a week followed by NO donor) is on record as “almost the same as that of the untreated HME-RhoC cells”. The “screen of 6-TP isomers on RhoA activity” value on RhoA [3] (not shown) was “most effectively inhibits RhoA activity”. In addition, the “screen of 6-TP isomers on MLC phosphorylation” value in the assay with MLC (not shown) was “dephosphorylates the MLC”. Further, the “screen of 6-TP isomers on ERM dephosphorylation” value with ERM (not shown) is “blocks the dephosphorylation of ERM”. Also, on RhoA [4], the “thioguanine nucleotide-RhoA disulfide adduct (Cys20)” value was “biologically inactive 8-TGNPRhoA disulfide adduct”.
As to `Nc1nc2nc[nH]c2c(=S)[nH]1` [6-TG, 6-thioguanine], in the assay on HME-RhoC cells [1] (6-TG 1 μM), the “cells persistently resisting additional treatments (of the initial cells)” value is recorded as 20%-25%. Further, the “cells that underwent apoptosis within a day” value in the assay on HME-RhoC cells [1] was approximately 80%. The “apoptotic effect (caspase, FIG. 25B)” value with HME-RhoC cells [2] (6-TG) is “minimal”. Besides, the “viability and caspase activity” value in the assay on HME-RhoC cells [2] (6-TG and DETA/NO, FIG. 25) is “minimally affected”. Besides, the “cell viability (MTT, FIG. 25A)” value in the assay on HME-RhoC cells [2] (6-TG for 3 days) is on record as “minimally affected”. Besides, the RhoA inactivation result at RhoA [3] (6-TG 1 μM, within 3 days, FIG. 20B) is listed as “significant portion of RhoA was inactivated”. Further, on RhoA [3] (setting [5]), the “fraction of inactive RhoA” value is “synergistically increases the fraction of inactive RhoA”. Further, the “cellular expression levels of RhoA and of the MLC” value on RhoA [3] (presence or absence of 6-TG, FIG. 20A) is on record as “not changed”. The “dephosphorylated form of the MLC” value in the assay with MLC (setting [5]) is recorded as “synergistically increases”. Also, the MLC dephosphorylation entry in the assay with MLC (6-TG, after 3 days, FIG. 20B) is “large portion of the MLC in A7r5 cells was observed to have been dephosphorylated”. The “blockage of ERM dephosphorylation” value with ERM (6-TG plus DETA/NO 10 μM) is reported as “increases the blockage of the dephosphorylated form of ERM”. Moreover, the ERM phosphorylation entry in the assay with ERM (6-TG, after three days, FIG. 26B) was “large portion of ERM in T cells was observed to have been phosphorylated”. For the same compound, on RhoA [4], the “thioguanine nucleotide-RhoA disulfide adduct (Cys20)” value is “biologically inactive 6-TGNP-RhoA disulfide adduct”. The “MS peak representing 6-TGNP-RhoA adduct” value on RhoA [4] (both 6-TG and NO, intensity not truly quantitative) is on record as “increased”.
